From patent US20150209379A1, “TREATMENT OF PROSTATE CANCER AND HEMATOLOGIC NEOPLASMS” (THOMAS JEFFERSON UNIVERSITY, priority 2012, published 2015)

What was measured:
[1] = system: CWR22Rv1 prostate cancer cells; experiment: Cell viability, MTS assay, CWR22Rv1 prostate cancer cells; assay type: cell-based, human; conditions: CWR22Rv1, 72 h, 3.1, 6.3, 12.5, 25 and 50 μM, vs control compound C5
Procedure: Exponentially growing CWR22Rvl prostate cancer cells were treated with Compound 1, Compound 2 or the control compound C5 for 72 h at 3.1, 6.3. 12.5, 25 and 50 μM concentrations. The cell viability was assessed by MTS (3-(4,5-dimethylthiazolyl-2)-2,5-diphenyl-tetrazolium bromide) metabolic activity assay (CellTiter 96® AQueous Assay kit).
Exponentially growing CWR22Rv1 prostate cancer cells, K562 leukemia cells and imatinib-sensitive KCL22S and imatinib-resistant KCL22R chronic myeloid leukemia cells were treated with NBPP or the control compound C5 for 72 h at 3.1, 6.3. 12.5, 25 and 50 μM concentrations. The cell viability was assessed by MTS (3-(4,5-dimethylthiazolyl-2)-2,5-diphenyl-tetrazolium bromide) metabolic activity assay (CellTiter 96® AQueous Assay kit).
Exponentially growing CWR22Rvl prostate cancer cells were treated with N6BA or the control compound C5 for 72 h at 3.1, 6.3. 12.5, 25 and 50 μM concentrations. The cell viability was assessed by MTS (3-(4,5-dimethylthiazolyl-2)-2,5-diphenyl-tetrazolium bromide) metabolic activity assay (CellTiter 96® AQueous Assay kit).

Stat5b = molecular target: T1, Stat5b (Homo sapiens, UniProt P51692); experiment: Stat5b transcriptional activity, beta-casein promoter luciferase reporter gene assay in PC-3 cells; assay type: cell-based; conditions: varying concentration
T1 construct: expressed in transfected cells; host or cells: PC-3 human prostate cancer cells
T1 sequence (P51692 1-787): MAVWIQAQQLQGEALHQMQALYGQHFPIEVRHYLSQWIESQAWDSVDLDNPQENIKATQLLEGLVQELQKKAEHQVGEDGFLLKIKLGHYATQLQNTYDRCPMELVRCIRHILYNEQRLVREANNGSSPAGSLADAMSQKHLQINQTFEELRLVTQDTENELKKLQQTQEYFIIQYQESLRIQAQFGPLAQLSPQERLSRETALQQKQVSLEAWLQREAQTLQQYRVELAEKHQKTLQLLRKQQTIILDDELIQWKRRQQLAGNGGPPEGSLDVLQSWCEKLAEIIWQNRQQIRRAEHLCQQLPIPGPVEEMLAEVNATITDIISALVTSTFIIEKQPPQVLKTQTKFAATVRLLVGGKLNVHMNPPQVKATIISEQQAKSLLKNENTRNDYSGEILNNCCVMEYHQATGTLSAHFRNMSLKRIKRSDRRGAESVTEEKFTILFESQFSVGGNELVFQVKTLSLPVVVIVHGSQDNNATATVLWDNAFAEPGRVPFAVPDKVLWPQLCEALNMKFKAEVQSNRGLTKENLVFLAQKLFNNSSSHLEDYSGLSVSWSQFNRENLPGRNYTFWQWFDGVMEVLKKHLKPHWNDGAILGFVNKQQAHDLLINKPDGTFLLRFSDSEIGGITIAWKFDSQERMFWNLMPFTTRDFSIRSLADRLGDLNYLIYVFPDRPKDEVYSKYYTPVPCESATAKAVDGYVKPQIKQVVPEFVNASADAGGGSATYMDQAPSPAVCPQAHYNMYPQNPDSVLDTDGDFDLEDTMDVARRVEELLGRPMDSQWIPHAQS
Procedure: Cells of the human prostate cell line PC-3 were plated into 96-well plate at the density of 2×10^5 per well. After 24 hours of plating, cells were transiently co-transfected using FuGENE6 (Roche) with 0.25 μg of each of pStat5a or pStat5b, pPrlR (prolactin receptor) plasmids, 0.5 μg of pBeta-casein-luc and 0.025 μg of pRL-TK (Renilla luciferase) plasmids as an internal control. After another 24 hours of transfection, the cells were starved in serum-free medium for 8 hours, pretreated with N^6-benzyladenosine (“N6BA”), or the control compound C5, for 1 hour, and then stimulated with 10 nM human prolactin (hPrl) in the serum-free medium for additional 16 hours. The lysates were assayed for firefly and Renilla luciferase activities using the Dual-Luciferase reporter assay system (Promega). Three independent experiments were carried out in triplicate. The firefly luciferase activity was normalized to the Renilla luciferase activity of the same sample, and the mean was calculated from the parallels. From the mean values of each independent run, the overall mean and its standard deviation (S.D.) were calculated.

| SMILES | number of viable cells [1] | effect on transcriptional activity of Stat5b (Stat5b) |
| --- | --- | --- |
| OC[C@H]1O[C@@H](n2cnc3c(N4CCc5ccccc5C4)ncnc32)[C@H](O)[C@@H]1O [Compound 1, (2R,3R,4S,5R)-2-(6-(3,4-Dihydroisoquinolin-2(1H)-yl)-9H-purin-9-yl)-5-(hydroxymethyl)tetrahydrofuran-3,4-diol] | decreased the number of viable prostate cancer cells compared to the control compound | inhibited Stat5a and Stat5b transcriptional activity in a concentration-dependent manner |
| OC[C@H]1O[C@@H](n2cnc3c(NNc4ccccc4)ncnc32)[C@H](O)[C@@H]1O [Compound 2, (2R,3S,4R,5R)-2-(hydroxymethyl)-5-(6-(2-phenylhydrazinyl)-9H-purin-9-yl)tetrahydrofuran-3,4-diol] | decreased the number of viable prostate cancer cells compared to the control compound | inhibited Stat5a and Stat5b transcriptional activity in a concentration-dependent manner |
| OC[C@H]1O[C@@H](n2cnc3c(NCc4ccccc4)ncnc32)[C@H](O)[C@@H]1O [Compound N6BA, N^6-benzyladenosine] | decreased the number of viable prostate cancer cells | inhibited Stat5 transcriptional activity in a concentration-dependent manner |
| OC[C@H]1O[C@@H](n2ccc3c(NCc4ccccc4)ncnc32)[C@H](O)[C@@H]1O [NBPP, N-(phenylmethyl)-7-β-D-ribofuranosyl-7H-pyrrolo[2,3-d]pyrimidin-4-amine] | decreased the number of viable prostate cancer cells |  |
